From the supplement of paper PMC11616607

Tests used:
Assay in all cases: drug sensitivity score (DSS) from 5-point dose-response viability curve (DSS (area-under-curve based score)); higher = more sensitive (stronger growth inhibition or killing); extreme values may be limits of the assay
Conditions in all cases: exposure time: 72 h; concentration range: 5 concentrations over 10,000-fold range
CAOV3 = test system: CAOV3
Method in brief: (§1)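 For the drug sensitivity score, obtained per cell line and drug in Breeze software, larger values mean greater sensitivity. No response corresponds to a score of zero. Ovarian cancer and normal ovarian cells were seeded at 1,500 per well into 384-well plates already holding acoustically dispensed drugs (Echo 550, DMSO or water, five concentrations over a 10,000-fold range) and incubated 3 days at 37°C, 5% CO2. CellTiter-Glo luminescence on a PHERAstar FS gave the viability readout.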

COV318 = test system: COV318
Method in brief: as §1

COV362 = test system: COV362
Method in brief: as §1

HOSE1C = test system: HOSE1C
Method in brief: as §1

HOSE2C = test system: HOSE2C
Method in brief: as §1

JHOS2 = test system: JHOS2
Method in brief: as §1

Kuramochi = test system: Kuramochi
Method in brief: as §1

OV90 = test system: OV90
Method in brief: as §1

OVCAR4 = test system: OVCAR4
Method in brief: as §1

OVCAR5 = test system: OVCAR5
Method in brief: as §1

OVCAR8 = test system: OVCAR8
Method in brief: as §1

Ovsaho = test system: Ovsaho
Method in brief: as §1

| Compound | drug sensitivity score (CAOV3) | drug sensitivity score (COV318) | drug sensitivity score (COV362) | drug sensitivity score (HOSE1C) | drug sensitivity score (HOSE2C) | drug sensitivity score (JHOS2) | drug sensitivity score (Kuramochi) | drug sensitivity score (OV90) | drug sensitivity score (OVCAR4) | drug sensitivity score (OVCAR5) | drug sensitivity score (OVCAR8) | drug sensitivity score (Ovsaho) |
| --- | --- | --- | --- | --- | --- | --- | --- | --- | --- | --- | --- | --- |
| CN(C)C1CCN(C(=O)c2ccc(NC(=O)Nc3ccc(-c4nc(N5CCOCC5)nc(N5CCOCC5)n4)cc3)cc2)CC1 [Gedatolisib] | 10 | 3.2 | 4.8 | 17.9 | 13.1 | 7.4 | 11.4 | 15.4 | 14.8 | 12.3 | 7.5 | 13.4 |
| COc1cc2ncnc(Nc3ccc(F)c(Cl)c3)c2cc1OCCCN1CCOCC1 [Gefitinib] | 7.2 | 0.5 | 0.3 | 0 | 0.3 | 1.6 | 1.8 | 4 | 1.9 | 5.6 | 3.3 | 3.8 |
| Nc1ccn([C@@H]2O[C@H](CO)[C@@H](O)C2(F)F)c(=O)n1 [Gemcitabine] | 23.6 | 3.5 | 8.1 | 8.2 | 6.7 | 12.7 | 0 | 13.5 | 0 | 15.5 | 23.6 | 3.3 |
| CCc1nc(C(N)=O)c(Nc2ccc(N3CCC(N4CCN(C)CC4)CC3)c(OC)c2)nc1NC1CCOCC1 [Gilteritinib] | 3.9 | 0.6 | 0.4 | 0 | 0 | 0 | 0.7 | 2.2 | 0.1 | 4.9 | 0.4 | 0 |
| CCN(CC)Cc1ccc2cc(COC(=O)Nc3ccc(C(=O)NO)cc3)ccc2c1 [Givinostat] | 7.3 | 4.2 | 2.2 | 12.3 | 8.6 | 5.3 | 6.2 | 7.7 | 4.1 | 10.8 | 10 | 3.2 |
| CN1CC[C@@H](NC(=O)Nc2ccc(C#N)cc2)C[C@@H]1c1nc2ccccc2[nH]1 [Glasdegib] | 0 | 0 | 0 | 0 | 0 | 0 | 0 | 0 | 0 | 0 | 0 | 0 |
| COCCNCc1ccc(-c2cc3nccc(Oc4ccc(NC(=S)NC(=O)Cc5ccc(F)cc5)cc4F)c3s2)nc1 [Glesatinib] | 0 | 0.1 | 1.6 | 2.9 | 1.9 | 0 | 0 | 0 | 0 | 1.2 | 0 | 0.2 |
| CN1CCN(C2CCN(C(=O)Nc3cc(Oc4ccc(NC(=O)C5(C(=O)Nc6ccc(F)cc6)CC5)c(F)c4)ccn3)CC2)CC1 [Golvatinib] | 0 | 0 | 0 | 0 | 0 | 0 | 0.8 | 1.4 | 0 | 0.1 | 0 | 0 |
| CC(C)C[C@H](NC(=O)[C@@H](COC(C)(C)C)NC(=O)[C@H](Cc1ccc(O)cc1)NC(=O)[C@H](CO)NC(=O)[C@H](Cc1c[nH]c2ccccc12)NC(=O)[C@H](Cc1cnc[nH]1)NC(=O)[C@@H]1CCC(=O)N1)C(=O)N[C@@H](CCCNC(=N)N)C(=O)N1CCC[C@H]1C(=O)NNC(N)=O [Goserelin] | 0 | 0 | 0 | 0 | 0 | 0 | 0 | 0 | 0 | 0 | 0 | 4.7 |
| O=S(=O)(c1cccc2c(O)nccc12)N1CCCNCC1 [Hydroxyfasudil] | 0 | 0.1 | 0 | 0 | 0 | 0.4 | 0 | 0 | 0 | 0 | 0 | 0 |
| NC(=O)NO [Hydroxyurea] | 1.1 | 1.7 | 0.1 | 8.2 | 8 | 3.3 | 0 | 2.8 | 0 | 2.9 | 5.1 | 2.3 |
| COc1cc2c(cc1-c1c(C)noc1C)ncc1[nH]c(=O)n([C@H](C)c3ccccn3)c12 [I-BET151] | 11.9 | 1.9 | 0.6 | 13.8 | 11.3 | 4.5 | 9.2 | 8.2 | 6.9 | 7.1 | 9.5 | 12 |
| O=C(O)c1ccc(O)c2ncccc12 [IOX-1] | 1.2 | 0 | 0 | 4.6 | 3.4 | 0 | 1.6 | 3.2 | 1.5 | 1 | 3 | 1.6 |
| O=C(O)CNC(=O)c1c(O)c2ccccc2n(Cc2ccccc2)c1=O [IOX-2] | 0 | 0 | 0 | 0.1 | 0 | 0 | 0 | 0 | 0 | 0 | 0 | 0 |
| C=CC(=O)N1CCC[C@@H](n2nc(-c3ccc(Oc4ccccc4)cc3)c3c(N)ncnc32)C1 [Ibrutinib] | 3 | 0 | 0.5 | 0 | 0 | 0 | 2.8 | 0 | 1.5 | 3.1 | 0 | 2.5 |
| C#Cc1cccc(Nc2ncnc3cc4c(cc23)OCCOCCOCCO4)c1 [Icotinib] | 5.7 | 0.2 | 0 | 0 | 0 | 0.4 | 0.2 | 0 | 1.7 | 4.3 | 0 | 1.1 |
| CC(=O)[C@]1(O)Cc2c(O)c3c(c(O)c2[C@@H](O[C@H]2C[C@H](N)[C@H](O)[C@H](C)O2)C1)C(=O)c1ccccc1C3=O [Idarubicin] | 12 | 6.1 | 4.8 | 14.2 | 13.7 | 7.1 | 5.1 | 10.7 | 6.3 | 7.7 | 10.3 | 11.7 |
| COc1cc(C(=O)O)ccc1NC(=O)[C@@H]1N[C@@H](CC(C)(C)C)[C@](C#N)(c2ccc(Cl)cc2F)[C@H]1c1cccc(Cl)c1F [Idasanutlin] | 0 | 0 | 0 | 16 | 10.5 | 0 | 0 | 0 | 1.2 | 0.7 | 3.3 | 0 |
| CC[C@H](Nc1ncnc2[nH]cnc12)c1nc2cccc(F)c2c(=O)n1-c1ccccc1 [Idelalisib] | 0.8 | 0.7 | 1.3 | 0.1 | 1 | 0.9 | 5.8 | 0 | 2.3 | 2.7 | 0.2 | 5.7 |
| CC(C)Cn1cnc2c(N)nc3ccccc3c21 [Imiquimod] | 0 | 0 | 0 | 0 | 0 | 0.5 | 0 | 0 | 0 | 0 | 0.1 | 0 |
| O=C(Nc1ccncc1)C(=O)c1cn(Cc2ccc(Cl)cc2)c2ccccc12 [Indibulin] | 7.2 | 2.5 | 1.8 | 20.1 | 18.3 | 6.8 | 7.2 | 5.9 | 5.5 | 5.7 | 6.4 | 7.9 |
| CCN1CCN(c2ccc(Nc3cc(N(C)C(=O)Nc4c(Cl)c(OC)cc(OC)c4Cl)ncn3)cc2)CC1 [Infigratinib] | 0 | 0 | 0 | 0 | 0 | 0 | 0 | 0 | 0 | 0 | 0 | 0 |
| CC(C)NC[C@@H](C(=O)N1CCN(c2ncnc3c2[C@H](C)C[C@H]3O)CC1)c1ccc(Cl)cc1 [Ipatasertib] | 1.9 | 0.1 | 0 | 2.7 | 4.4 | 0.1 | 2.6 | 0.5 | 0 | 3 | 0.5 | 1.6 |
| CCC(C)n1ncn(-c2ccc(N3CCN(c4ccc(OCC5COC(Cn6cncn6)(c6ccc(Cl)cc6Cl)O5)cc4)CC3)cc2)c1=O (stereo not given) [Itraconazole] | 0 | 0.9 | 0.6 | 0 | 0 | 0.2 | 1.1 | 4.1 | 2.1 | 5.9 | 1.9 | 0.2 |
| N#Cc1ccnc(N2C(=O)CC[C@H]2C(=O)N(c2cncc(F)c2)[C@H](C(=O)NC2CC(F)(F)C2)c2ccccc2Cl)c1 [Ivosidenib] | 0 | 0 | 0 | 0 | 0 | 0 | 0 | 0.3 | 0.1 | 0.6 | 0 | 0 |
| C/C(=C\c1csc(C)n1)[C@@H]1C[C@@H]2O[C@]2(C)CCC[C@H](C)[C@H](O)[C@@H](C)C(=O)C(C)(C)[C@@H](O)CC(=O)N1 [Ixabepilone] | 4.6 | 2.9 | 1.3 | 1.6 | 2 | 2.7 | 2.6 | 2.4 | 2.1 | 4.5 | 5.2 | 2 |
| CC(C)C[C@H](NC(=O)CNC(=O)c1cc(Cl)ccc1Cl)B(O)O [Ixazomib] | 11.6 | 16.4 | 10.5 | 7.4 | 7.8 | 10.6 | 2.7 | 5.5 | 6.5 | 10.4 | 9 | 7 |
| Nc1cc(COc2c(Cl)cc(C[C@H](N)C(=O)O)cc2Cl)c2oc(-c3ccccc3)nc2c1 [JPH203] | 0 | 0 | 0 | 0 | 0 | 0 | 0 | 0 | 0.2 | 7.5 | 0 | 0 |
| CC(C)NC(=O)COc1cccc(-c2nc(Nc3ccc4[nH]ncc4c3)c3ccccc3n2)c1 [KD025] | 0.4 | 0 | 0.5 | 0 | 0 | 1.2 | 3.8 | 8.7 | 3.6 | 2 | 8.2 | 1.9 |
| CS(=O)(=O)CCNCc1ccc(-c2ccc3ncnc(Nc4ccc(OCc5cccc(F)c5)c(Cl)c4)c3c2)o1 [Lapatinib] | 2.4 | 0 | 0 | 0 | 0 | 0 | 0 | 0 | 0 | 0.7 | 0 | 0 |
